# Source: patent US7148380B2, “Bio-energy muscle relaxants” (priority 2000, dated 2006)
# “And” between values parts separate entries of the source, which are not always exact repeats. Equal entries are not always repeated. Where two headings read alike, the source gives them in different places.
# What was measured:
# [1] = test system: isolated colon tissues from guinea pigs; test: Isolated colon smooth muscle contraction induced by BaCl2; design: species or system guinea pig
# Source text: To investigate this effect, 14 guinea pigs (provided by the Center of Experimental Animals, First Military Medical University, Guangzhou, China, certificate No. 99A047) with body weight of 240±20 g were used for the study. Following sacrifice of the animal by cervical dislocation, the colon was isolated within Botting solution, a segment of the colon in 2 cm length was taken to mount on the equipment—one end connected to a force transducer, the other end fixed at the bottom of the organ water-bath (DC-001 Organ Bath, made in Nanjin, China) containing oxygenated nutritious solution at 37° C.
# Group “t” test was then made. Significance is considered to be established when P<0.05
# The animals were divided as test group and control (placebo) group.
# Where Fc is force of the smooth muscle contraction.
# Paired group “t” test was made to compare contraction force after BDM and distilled water to determine whether there is a significant difference between the two groups.
# [2] = test system: hypertension induced by aramine; test: Aramine-induced hypertension, curative test; type: in vivo, SD rats
# Description: (§1) Eighteen (18) SD rats (provided by the Center of Experimental Animals, First Military Medical University, Guang Zhou, China, Certificate No. 99A046) with body weight of 200–250 g were used for the study. The animal was anesthetized with urethane (1.4 g/kg, I.P.), then the main cervical artery was exposed and cannulated, blood pressure was monitored during the experiment. After a 30-minute stabilization period after the operation, normal blood pressure curves were recorded.
# [3] = test system: contraction of bronchial smooth muscle induced by histamine; test: By-pass-airflow pressure, bronchial smooth muscle contraction induced by histamine; type: in vivo, guinea pig
# Description: The animals were divided as saline, BDM, and aminophylline groups. Each animal was anesthetized with pentobarbital (30 mg/kg, I.P.), the trachea was intubated and connected to respirator. Tidal volume and frequency of the respirator were adjusted to 6˜10 ml and 60˜70 breath/min. respectively.
# A small hole on chest wall of the animal was made, resulting in pneumothorax to inhibit spontaneous respiration of the animal. A modified device was used for measuring by-pass-airflow pressure of the airway, reflecting alteration in airway resistance, therefore evaluating status of bronchial smooth muscle contraction induced by histamine. The by-pass-airflow pressures were measured before and at 10, 20, 30, 40, 50, and 60 min after administration of histamine (5˜10 μg, I.P.) as control values. […] Changes in by-pass-airflow pressure caused by histamine before and after saline, BDM, or aminophylline were compared.
# A percentage of changes in the airflow pressures before and after administration of the histamine at different time points, defined as the change rate, was calculated according to formula 1 below: Change rate (%)=(PA−PB)/PB×100% (1)
# where PA is the airflow pressure after histamine, PB is the pressure before histamine. Values were expressed as mean±SD, paired or group “t” test was used upon the requirement for the statistical analysis. The results were considered significant when p<0.05.
# [4] = test system: hypertension induced by aramine; test: Aramine-induced hypertension, preventive test; type: in vivo, SD rats
# Description: as §1
# [5] = test system: convulsion induced by strychnine; type: in vivo, NIH mice; conditions: for Convulsion / The latent period / Convulsion-Death time / Death: n=12; for The latent period / Convulsion-Death time: mean±SD; for Convulsion-Death time: P<0.01 vs control
# Description: To investigate the effect, 36 mice (provided by the Center of Experimental Animals, Provincial Health Department, Guangdong, China, Certificate No. 99A030) were used for the study, the animals were grouped as placebo, preventing, and treatment groups. Muscle convulsion was induced with injection of strychnine (1.5 mg/kg I.P., injection product of 2 mg/ml, He Feng Pharmaceutical Co., Shanghai, China, Lot. No. 990701), the beginning and lasting time of the convulsion were recorded.
# Half male and female healthy NIH mice with body weight of 20±2 g were selected for the study. The animals were randomly divided into three groups as protective, curative, and control (saline). […] In the control group, saline (20 ml/kg, I.P.) was administered 0.5 h before the strychnine. Immediately following the injection of strychnine, convulsion latent period and the time from beginning of convulsion to death of the animal were recorded. […] (see Table 7).
# [6] = BDM 0.2 M, 10 ml/kg, I.P. after aramine
# [7] = control fluctuating within ±15 mmHg
# [8] = after drug 10 ml/kg I.P., 10 min after histamine
# [9] = after drug 10 ml/kg I.P., 20 min after histamine
# [10] = after drug 10 ml/kg I.P., 30 min after histamine
# [11] = after drug 10 ml/kg I.P., 40 min after histamine
# [12] = after drug 10 ml/kg I.P., 50 min after histamine
# [13] = after drug 10 ml/kg I.P., 60 min after histamine
# [14] = before drug administration, 10 min after histamine
# [15] = before drug administration, 20 min after histamine
# [16] = before drug administration, 30 min after histamine
# [17] = before drug administration, 40 min after histamine
# [18] = before drug administration, 50 min after histamine
# [19] = before drug administration, 60 min after histamine
# [20] = curative: BDM immediately after strychnine
# [21] = preventive: BDM 0.5 h prior to strychnine
smiles,measurement,setting,value
"CC(=O)C(C)=NO [BDM, 2,3-butanedione monoxime]","Contraction force, After","[1]; BaCl2 0.67 g/L, 10 min after BDM 0.2M, 20 ml/L nutritious sol., single preparations",1.70 g and 1.35 g and 1.45 g and 1.75 g and 2.20 g
same,"Contraction force, Before","[1]; BaCl2 0.67 g/L, before BDM, single colon preparations of the test group",2.35 g and 2.30 g and 2.45 g and 2.70 g and 2.90 g
same,Contraction Rate,"[1]; force after / before BDM 0.2M, 20 ml/L, single preparations",72.3% and 58.7% and 61.7% and 76.1% and 69.4% and 64.8% and 75.9%
same,Diastolic pressure 2 min. after BDM administration,[2]; [6],73.8 ± 4.9^★★ mmHg
same,Diastolic pressure 5 min. after BDM administration,[2]; [6],77.0 ± 9.1^★★ mmHg
same,Diastolic pressure 10 min. after BDM administration,[2]; [6],76.3 ± 5.2^★★ mmHg
same,Systolic pressure 2 min. after BDM administration,[2]; [6],123.7 ± 6.0^★★ mmHg
same,Systolic pressure 5 min. after BDM administration,[2]; [6],128.3 ± 5.2^★★ mmHg
same,Systolic pressure 10 min. after BDM administration,[2]; [6],130.5 ± 4.2^★★ mmHg
same,"Diastolic pressure, Blood Pressure before","[2]; baseline, mean±SD, n=6–7",74.0 ± 15.4 mmHg
same,"Systolic pressure, Blood Pressure before","[2]; baseline, mean±SD, n=6–7",123.3 ± 10.1 mmHg
same,Diastolic pressure 2 min. after aramin administration,[2]; before BDM,121.5 ± 5.5 mmHg
same,Diastolic pressure 5 min. after aramin administration,[2]; before BDM,122.2 ± 5.1 mmHg
same,Diastolic pressure 10 min. after aramin administration,[2]; before BDM,117.7 ± 9.5 mmHg
same,Systolic pressure 2 min. after aramin administration,[2]; before BDM,182.7 ± 6.0 mmHg
same,Systolic pressure 5 min. after aramin administration,[2]; before BDM,183.5 ± 5.5 mmHg
same,Systolic pressure 10 min. after aramin administration,[2]; before BDM,181.8 ± 6.4 mmHg
same,Average decrease of diastolic blood pressure after BDM administration,[2]; [7],42 mmHg
same,Average decrease of systolic blood pressure after BDM administration,[2]; [7],54 mmHg
same,"by-pass-airflow pressure, A, B. Hist","[3]; after drug 10 ml/kg I.P. (BDM 0.2M, aminophylline 1.25%), before histamine",3.86 ± 0.23 Kpa
same,"by-pass-airflow pressure, A, Hist 10 min.",[3]; [8],3.42 ± 0.21 Kpa
same,"changing rate of by-pass-airflow pressure, A, Hist 10 min.",[3]; [8],−11.37%
same,"by-pass-airflow pressure, A, Hist 20 min.",[3]; [9],3.54 ± 0.21 Kpa
same,"changing rate of by-pass-airflow pressure, A, Hist 20 min.",[3]; [9],−8.22%
same,"by-pass-airflow pressure, A, Hist 30 min.",[3]; [10],3.56 ± 0.27 Kpa
same,"changing rate of by-pass-airflow pressure, A, Hist 30 min.",[3]; [10],−7.80%
same,"by-pass-airflow pressure, A, Hist 40 min.",[3]; [11],3.60 ± 0.28 Kpa
same,"changing rate of by-pass-airflow pressure, A, Hist 40 min.",[3]; [11],−6.77%
same,"by-pass-airflow pressure, A, Hist 50 min.",[3]; [12],3.62 ± 0.29 Kpa
same,"changing rate of by-pass-airflow pressure, A, Hist 50 min.",[3]; [12],−6.25%
same,"by-pass-airflow pressure, A, Hist 60 min.",[3]; [13],3.66 ± 0.26 Kpa
same,"changing rate of by-pass-airflow pressure, A, Hist 60 min.",[3]; [13],−5.11%
same,histamine-induced increase in the airflow pressure,"[3]; at 10, 20, 30, 40, and 50 min after administration, p<0.01 or p<0.05",significantly reduce
same,"by-pass-airflow pressure, B, Hist 10 min.",[3]; [14],3.67 ± 0.16 Kpa
same,"changing rate of by-pass-airflow pressure, B, Hist 10 min.",[3]; [14],2.13%
same,"by-pass-airflow pressure, B, Hist 20 min.",[3]; [15],3.76 ± 0.32 Kpa
same,"changing rate of by-pass-airflow pressure, B, Hist 20 min.",[3]; [15],4.49%
same,"by-pass-airflow pressure, B, Hist 30 min.",[3]; [16],3.72 ± 0.21 Kpa
same,"changing rate of by-pass-airflow pressure, B, Hist 30 min.",[3]; [16],3.52%
same,"by-pass-airflow pressure, B, Hist 40 min.",[3]; [17],3.72 ± 0.18 Kpa
same,"changing rate of by-pass-airflow pressure, B, Hist 40 min.",[3]; [17],3.56%
same,"by-pass-airflow pressure, B, Hist 50 min.",[3]; [18],3.67 ± 0.23 Kpa
same,"changing rate of by-pass-airflow pressure, B, Hist 50 min.",[3]; [18],2.06%
same,"by-pass-airflow pressure, B, Hist 60 min.",[3]; [19],3.68 ± 0.11 Kpa
same,"changing rate of by-pass-airflow pressure, B, Hist 60 min.",[3]; [19],2.54%
same,"by-pass-airflow pressure, B, B. Hist","[3]; before drug administration, before histamine",3.60 ± 0.26 Kpa
same,"changing rate of by-pass-airflow pressure, D, Hist 10 min.","[3]; difference A minus B, 10 min after histamine",−13.50%
same,"changing rate of by-pass-airflow pressure, D, Hist 20 min.","[3]; difference A minus B, 20 min after histamine",−12.72%
same,"changing rate of by-pass-airflow pressure, D, Hist 30 min.","[3]; difference A minus B, 30 min after histamine",−11.33%
same,"changing rate of by-pass-airflow pressure, D, Hist 40 min.","[3]; difference A minus B, 40 min after histamine",−10.34%
same,"changing rate of by-pass-airflow pressure, D, Hist 50 min.","[3]; difference A minus B, 50 min after histamine",−8.31%
same,"changing rate of by-pass-airflow pressure, D, Hist 60 min.","[3]; difference A minus B, 60 min after histamine",−7.65%
same,Diastolic pressure 2 minutes after BDM administration,"[4]; BDM 0.2 M, 10 ml/kg, I.P.",39.7 ± 6.4^★★ mmHg
same,Diastolic pressure 5 minutes after BDM administration,"[4]; BDM 0.2 M, 10 ml/kg, I.P.",39.0 ± 8.7^★★ mmHg
same,Diastolic pressure 10 minutes after BDM administration,"[4]; BDM 0.2 M, 10 ml/kg, I.P.",43.0 ± 8.5^★★ mmHg
same,Systolic pressure 2 minutes after BDM administration,"[4]; BDM 0.2 M, 10 ml/kg, I.P.",88.0 ± 5.2^★★ mmHg
same,Systolic pressure 5 minutes after BDM administration,"[4]; BDM 0.2 M, 10 ml/kg, I.P.",84.0 ± 6.7^★★ mmHg
same,Systolic pressure 10 minutes after BDM administration,"[4]; BDM 0.2 M, 10 ml/kg, I.P.",88.2 ± 7.7^★★ mmHg
same,Diastolic pressure 2 minutes after aramine administration,[4]; BDM given before aramine,76.2 ± 21.5^★★ mmHg
same,Diastolic pressure 5 minutes after aramine administration,[4]; BDM given before aramine,76.5 ± 11.9^★★ mmHg
same,Diastolic pressure 10 minutes after aramine administration,[4]; BDM given before aramine,77.0 ± 22.4^★★ mmHg
same,Systolic pressure 5 minutes after aramine administration,[4]; BDM given before aramine,127.5 ± 16.1^★★ mmHg
same,Systolic pressure 10 minutes after aramine administration,[4]; BDM given before aramine,127.7 ± 17.3^★★ mmHg
same,Systolic pressure 2 minutes after aramine administration,"[4]; BDM given before aramine 30 μg/ml, 0.4 ml/min I.V.",126.3 ± 16.1^★★ mmHg
same,"Diastolic pressure, Blood Pressure before","[4]; baseline, mean±SD, n=6–7",68.7 ± 8.8 mmHg
same,"Systolic pressure, Blood Pressure before","[4]; baseline, mean±SD, n=6–7",117.3 ± 3.2 mmHg
same,Diastolic blood pressure following aramine administration in BDM group,[4]; control about 120,~75 mmHg
same,Systolic blood pressure following aramine administration in BDM group,[4]; control about 185,about 125 mmHg
same,Diastolic blood pressure after administration of BDM,"[4]; down from 68, approximately",~40 mmHg
same,Systolic blood pressure after administration of BDM,"[4]; down from 117, approximately",~84 mmHg
same,Convulsion,"[5]; curative: BDM 0.2M, 20 ml/kg I.P. immediately after strychnine 1.5 mg/kg I.P.",100%
same,The latent period,[5]; [20],134.2 ± 31.5 s
same,Convulsion-Death time,[5]; [20],538.3±169.3 s and 538.3 ± 169.3^★★ s
same,Death,[5]; [20],100%
same,Behaviour of the animals after administration of BDM,"[5]; mice, BDM 0.2M, 20 ml/kg, I.P.","reducing activities, difficulties in action and toddling"
same,Convulsion,"[5]; preventive: BDM 0.2M, 20 ml/kg I.P. 0.5 h prior to strychnine 1.5 mg/kg I.P.",100%
same,The latent period,[5]; [21],183.8 ± 32.6 s
same,Convulsion-Death time,[5]; [21],496.3±285.3 s and 496.3 ± 285.3^★★ s
same,Death,[5]; [21],100%
